Where a name gives a salt, the structure may show the parent alone.

What is called melting point is the temperature of the solid-liquid transition.

For the compound `COCC(=O)N1CC[C@H](NC(=O)c2cc3cc(Cl)ccc3[nH]2)[C@H](NC(=O)c2nc3c(s2)CN(C(C)(C)CO)CC3)C1` (relative stereo) (as salt: hydrochloride), the melting point was 221 to 232 °C (dec.). For `CN1CCc2nc(C(=O)N[C@@H]3CN(C(=O)c4ccccc4)CC[C@@H]3NC(=O)c3cc4cc(Cl)ccc4[nH]3)sc2C1` (relative stereo) (as salt: hydrochloride) [Example 154, N-((3R*,4S*)-1-benzoyl-4-{[(5-Chloroindol-2-yl)carbonyl]amino}piperidin-3-yl]-5-methyl-4,5,6,7-tetrahydrothiazolo[5,4-c]pyridine-2-carboxamide hydrochloride] the value was 215 to 225 °C (dec.); for `CN1CCc2nc(C(=O)N[C@@H]3CN(C(=O)C4CC(O)C4)CC[C@@H]3NC(=O)c3cc4cc(Cl)ccc4[nH]3)sc2C1` (relative stereo) (as salt: hydrochloride), 200 °C (dec.).

As to `CN1CCc2nc(C(=O)N[C@@H]3CN(C(=O)C(C)(C)C)CC[C@@H]3NC(=O)c3cc4cc(Cl)ccc4[nH]3)sc2C1` (relative stereo) (as salt: hydrochloride), the melting point is 250 to 255 °C (dec.). For `CN1CCc2nc(C(=O)N[C@@H]3CNCC[C@@H]3NC(=O)c3cc4cc(Cl)ccc4[nH]3)sc2C1` (relative stereo) (as salt: hydrochloride) [Example 118, N-((3R*,4S*)-4-{[(5-Chloroindol-2-yl)carbonyl]amino}-piperidin-3-yl)-5-methyl-4,5,6,7-tetrahydrothiazolo[5,4-c]pyridine-2-carboxamide dihydrochloride] the value was 240 to 258 °C (dec.); for `COCCOC(=O)N1CC[C@H](NC(=O)c2cc3cc(Cl)ccc3[nH]2)[C@H](NC(=O)c2nc3c(s2)CN(C)CC3)C1` (relative stereo) (as salt: hydrochloride), 224 to 226 °C (dec.). `COCC(=O)N1CC[C@H](NC(=O)c2cc3cc(F)ccc3[nH]2)[C@H](NC(=O)c2nc3c(s2)CN(C(C)C)CC3)C1` (relative stereo) (as salt: hydrochloride): the melting point is 214 to 228 °C (dec.). As for `CCNC(=O)N1CC[C@H](NC(=O)c2cc3cc(Cl)ccc3[nH]2)[C@H](NC(=O)c2nc3c(s2)CN(C)CC3)C1` (relative stereo) (as salt: hydrochloride), the figure is 221 to 235 °C (dec.); as for `CC(=O)N1CC[C@H](NC(=O)c2cc3cc(F)ccc3[nH]2)[C@H](NC(=O)c2nc3c(s2)CN(C)CC3)C1` (relative stereo) (as salt: hydrochloride), 202 °C (dec.); as for `CN1CCc2nc(C(=O)N[C@@H]3CCN(S(C)(=O)=O)C[C@@H]3NC(=O)c3cc4cc(Cl)ccc4[nH]3)sc2C1` (relative stereo) (as salt: hydrochloride), 228 to 245 °C (dec.).

In the case of `CN1CCc2nc(C(=O)N[C@@H]3CS(=O)(=O)CC[C@H]3NC(=O)c3cc4cc(F)ccc4[nH]3)sc2C1` (relative stereo) (as salt: hydrochloride) [Example 182, N-((3R*,4S*)-4-{[(5-Fluoroindol-2-yl)carbonyl]amino}-1,1-dioxohexahydro-1-thiopyran-3-yl)-5-methyl-4,5,6,7-tetrahydrothiazolo[5,4-c]pyridine-2-carboxamide hydrochloride], the melting point was in the range of 236 to 241 °C.

Consider `CCOC(=O)N1CC[C@H](NC(=O)c2cc3cc(Cl)ccc3[nH]2)[C@H](NC(=O)c2nc3c(s2)CN(C)CC3)C1` (relative stereo) (as salt: hydrochloride) [Example 130, Ethyl (3R*,4S*)-4-{[(5-chloroindol-2-yl)carbonyl]amino}-3-{[(5-methyl-4,5,6,7-tetrahydrothiazolo[5,4-c]pyridin-2-yl)carbonyl]amino}piperidine-1-carboxylate hydrochloride], for which the melting point is 215 to 225 °C (dec.). As for `CN1CCc2nc(C(=O)N[C@@H]3CN(C(=O)C4CCCC4)CC[C@@H]3NC(=O)c3cc4cc(Cl)ccc4[nH]3)sc2C1` (relative stereo) (as salt: hydrochloride), the figure is 254 to 260 °C (dec.); as for `CN1CCc2nc(C(=O)N[C@@H]3CNC[C@H]3NC(=O)c3cc4cc(Cl)ccc4[nH]3)sc2C1` (as salt: hydrochloride), 248 to 250 °C (dec.). `CN1CCc2nc(C(=O)N[C@@H]3CN(C(=O)C(F)(F)F)CC[C@@H]3NC(=O)c3cc4cc(Cl)ccc4[nH]3)sc2C1` (relative stereo) (as salt: hydrochloride) [Example 137, N-[(3R*,4S*)-4-{[(5-Chloroindol-2-yl)carbonyl]amino}-1-(2,2,2-trifluoroacetyl)piperidin-3-yl]-5-methyl-4,5,6,7-tetrahydrothiazolo[5,4-c]pyridine-2-carboxamide hydrochloride]: the melting point is 262 to 267 °C (dec.).

In the case of `CCOC(=O)N1C[C@@H](NC(=O)c2cc3cc(Cl)ccc3[nH]2)[C@H](NC(=O)c2nc3c(s2)CN(C(C)C)CC3)C1` (as salt: hydrochloride) [Example 116, Ethyl (3R,4R)-3-{[(5-chloroindol-2-yl)carbonyl]amino}-4-{[(5-isopropyl-4,5,6,7-tetrahydrothiazolo[5,4-c]pyridin-2-yl)carbonyl]amino}pyrrolidine-1-carboxylate hydrochloride], the melting point was 225 to 228 °C (dec.). In the case of `CN1CCc2nc(C(=O)N[C@@H]3CN(C(=O)C4CCOCC4)CC[C@@H]3NC(=O)c3cc4cc(Cl)ccc4[nH]3)sc2C1` (relative stereo) (as salt: hydrochloride), the melting point was 225 to 248 °C (dec.). For `CC(=O)N1CC[C@@H](NC(=O)c2nc3c(s2)CN(C)CC3)[C@@H](NC(=O)c2cc3cc(Cl)ccc3[nH]2)C1` (relative stereo) (as salt: hydrochloride) [Example 124, N-((3R*,4S*)-1-Acetyl-3-{[(5-chloroindol-2-yl)carbonyl]-amino}piperidin-4-yl)-5-methyl-4,5,6,7-tetrahydro-thiazolo[5,4-c]pyridine-2-carboxamide hydrochloride] the value was 225 to 250 °C (dec.). For the compound `CCOC(=O)N1CC[C@@H](NC(=O)c2nc3c(s2)CN(C)CC3)[C@@H](NC(=O)c2cc3cc(Cl)ccc3[nH]2)C1` (relative stereo) (as salt: hydrochloride), the melting point was 213 to 225 °C (dec.). As for `CN1CCc2nc(C(=O)N[C@@H]3CS(=O)(=O)CC[C@@H]3NC(=O)c3cc4cc(Cl)ccc4[nH]3)sc2C1` (relative stereo) (as salt: hydrochloride) [Example 178, N-((3R*,4R*)-4-{[(5-Chloroindol-2-yl)carbonyl]amino}-1,1-dioxohexahydro-1-thiopyran-3-yl)-5-methyl-4,5,6,7-tetrahydrothiazolo[5,4-c]pyridine-2-carboxamide hydrochloride], the figure is 241 to 244 °C; as for `COC(=O)N1CC[C@H](NC(=O)c2cc3cc(Cl)ccc3[nH]2)[C@H](NC(=O)c2nc3c(s2)CN(C)CC3)C1` (relative stereo) (as salt: hydrochloride) [Example 129, Methyl (3R*,4S*)-4-{[(5-chloroindol-2-yl)carbonyl]amino}-3-{[(5-methyl-4,5,6,7-tetrahydrothiazolo[5,4-c]pyridin-2-yl)carbonyl]amino}piperidine-1-carboxylate hydrochloride], 248 to 253 °C (dec.).

The values are drawn from US7342014B2, “Diamine derivatives” (Daiichi Pharmaceutical Co., Ltd., priority 2001, dated 2008).
